The structures appear in SMILES notation.

Broadly, the melting point is the temperature, or range, at which the solid turns liquid. On to `CCCCCC(C)Br` (stereo not given), for which the melting point amounted to 47 °C.

The compound `ClCc1nc(-c2ccc(Cl)cc2)no1` showed a melting point of 60 to 61 °C.

Take `N#Cc1c(NC(=O)c2ccccc2)sc2c1CCCC2`: the melting point worked out at 110 °C.

`CC1CCC2(OC1)OC1CC3C4CC=C5CC(O)CCC5(C)C4CCC3(C)C1C2C` (stereo not given) registered a melting point of 206 °C.

In turn, `CC(=NO)c1ccco1` gave a melting point of 104 to 105 °C.

On to `Cc1cccnc1C(=O)O`, for which the melting point amounted to 119 °C.

The compound `NS(=O)(=O)c1ccc(S(=O)(=O)CCO)c(F)c1` registered a melting point of 165 °C.

In turn, `NCCS(=O)(=O)O` had a melting point of 328 °C.

For the compound `O=C(Nc1ccc([N+](=O)[O-])cc1)c1ccccc1`, the melting point came out at 198 °C.

As for `CCCCCCCCCCCC(=O)OCC`, the melting point is -2 °C.

As to `c1ccc2c(c1)ccc1ccc3ccccc3c12`, the melting point is 68 °C.

As to `NC1CCC1`, the melting point is -4 °C.

Compound `COC(=O)c1ccc(C)c(C)c1` displayed a melting point of 36 to 38 °C.

`Cc1ccc(N=C=Nc2ccc(C)cc2)cc1` returned a melting point of 58.5 °C.

Turning to `Cc1c(C)c2c(c(C)c1O)CCC(C)(COc1ccc(CC3SC(=O)NC3=O)cc1)O2` (stereo not given), the melting point is 185 °C.

`Cc1cc(CC(C)CC(C)(C)C)n(O)c(=O)c1` (stereo not given) displayed a melting point of 108 °C.

Turning to `COC(=O)c1ccccc1C#N`, the melting point is 50 °C.

The compound `O=C(c1ccc(O)c(O)c1)c1c(O)cc(O)cc1O` returned a melting point of 222 °C.

For `O=C(Cl)c1cc2cc(Br)ccc2o1`, the melting point fell in the range of 106 to 107 °C.

`Cc1ccc2c(c1)CCCN2` displayed a melting point of 35 °C.

Consider `BrCCC1CCCCC1`, for which the melting point is -57 °C.

`FC(F)(F)C(F)(F)C(F)(F)I` gave a melting point of -95 °C.

In turn, `O=S(=O)(Nc1cc(F)c(F)cc1F)C(F)(F)F` came in with a melting point of 58.5 °C.

For the compound `C=Cc1ccccc1OC`, the melting point came out at 29 °C.

Turning to `CC(C)(C)OC(=O)N1CCSCC1C(=O)O` (stereo not given), the melting point was 145 to 147 °C.

Turning to `O=C1c2ccccc2S(=O)(=O)N1CCCCN1CCN(c2ncccn2)CC1`, the melting point stood at 137 °C.

`O=c1[nH]nc([N+](=O)[O-])c(Cl)c1Cl`: the melting point was 184 to 186 °C.

As to `O=C(C1=NOC2C(=O)N(c3ccc(O)cc3)C(=O)C12)c1ccccc1` (stereo not given), the melting point stood at 99 °C.

In the case of `CCCCCCCCCCCCSC(C(=O)Nc1cc(C)c(O)c(C)c1C)c1ccccc1` (stereo not given), the melting point was determined as 130 °C.

Turning to `C[C@]12CCC(=O)C=C1C(=O)C[C@@H]1[C@@H]2CC[C@@]2(C)[C@H]1CCC21OCCO1`, the melting point was 162 °C.

In the case of `NS(=O)(=O)Cc1ccccc1`, the melting point amounted to 103 °C.

For `C(=C\P(c1ccccc1)c1ccccc1)/P(c1ccccc1)c1ccccc1`, the melting point was 123 to 128 °C.

As for `COc1ccc(C(=O)OC2Cc3ccccc32)cc1` (stereo not given), the melting point stood at 124 °C.

With `O=Cc1ccccc1-c1ccccc1C(=O)O`, the melting point lay in the range of 128 to 133 °C.

As to `Oc1ccccc1-c1ccccc1O`, the melting point turned out to be 109 °C.

On to `CCOC(=O)Nc1c([N+](=O)[O-])cc(C)cc1[N+](=O)[O-]`, for which the melting point stood at 65 °C.

In the case of `O=[N+]([O-])c1ccc(C2Nn3c(nnc3-c3cccc([N+](=O)[O-])c3)S2)cc1` (stereo not given), the melting point came to 205 °C.

In turn, `Ic1ccccc1Cn1cncn1` yielded a melting point of 67 to 69 °C.

As for `CN(C)C(=O)Nc1ccc(Oc2ccc(Cl)cc2)cc1`, the melting point worked out at 151 °C.

In the case of `c1ccc(Cc2c3ccccc3c(Cc3ccccc3)c3ccccc23)cc1`, the melting point was determined as 246 °C.

`Cc1ccc(C(C)(C)C)c(O)c1` had a melting point of 46.5 °C.

`O=Cc1cccc2c1OCCO2` returned a melting point of 62 to 63 °C.

`OCC1OC(Oc2c[nH]c3ccc(Br)c(Cl)c23)C(O)C(O)C1O` (stereo not given) came in with a melting point of 249 to 251 °C.

`O=C(Oc1c(F)c(F)c(F)c(F)c1F)c1sccc1C1OCCO1`: the melting point was 55.5 to 59.5 °C.

Take `CCCCCCCCCCCCCCCCOC(C)=O`: the melting point was -18.5 °C.

For `CCC(=O)N1C(=O)OC[C@@H]1Cc1ccccc1`, the melting point lay in the range of 42 to 44 °C.

Compound `NNc1nc(N)nc(-c2ccccn2)n1` had a melting point of 287 to 289 °C.

On to `O=C(O)c1ccc(Cn2cncn2)cc1`, for which the melting point lay in the range of 227 to 229 °C.

`NC(=O)c1ccc(Cl)nc1` showed a melting point of 215 °C.

With `COc1cc(/C=C/C(=O)O)ccc1O`, the melting point was found to be 173 °C.

For the compound `CCC(O)CO` (stereo not given), the melting point was -50 °C.

`O=C1/C(=C/c2ccc([N+](=O)[O-])cc2)SC(=S)N1CNc1ccc([N+](=O)[O-])cc1` registered a melting point of 189 °C.

For `Cc1c(C)c(C)c(O)c(C)c1C`, the melting point turned out to be 128 °C.

As to `CC1(C)C(=O)OC2=C(CCCC2)C1c1ccccc1` (stereo not given), the melting point is 95 °C.

`Nc1ncc(Br)cn1` yielded a melting point of 239 to 244 °C.

`CC(=O)OCCOC(C)=O` yielded a melting point of -31 °C.

Compound `COC(=O)c1cc2occc2[nH]1` returned a melting point of 139 to 140 °C.

As to `Nc1ccc(C#Cc2ccc(N)cc2)cc1`, the melting point was in the range of 235 to 236 °C.

As to `CN(C)c1ccc([N+]([O-])=CC(=O)c2ccc(C(=O)C=[N+]([O-])c3ccc(N(C)C)cc3)cc2)cc1`, the melting point lay within 132 to 134 °C.

In the case of `O=C(O)C=Cc1cc(F)ccc1F`, the melting point turned out to be 139 °C.

`OCc1ccc(F)cc1Cl` showed a melting point of 44.5 °C.

The compound `Nc1ccc(Cl)c(Cl)c1` showed a melting point of 72 °C.

The compound `N#Cc1ccccc1Oc1ccc(Cl)cc1Cl` showed a melting point of 84 to 86 °C.

In turn, `COC(=O)c1cc(C)[nH]c1C` came in with a melting point of 120 °C.

For the compound `O=C(O)CNC(=O)c1ccccc1O`, the melting point turned out to be 168 °C.

Regarding `CCOC(=O)c1cc(-c2cccs2)n(C)n1`, the melting point was in the range of 38 to 41 °C.

Take `CN(C)C1C(=O)C(=C(N)O)C(=O)C2(O)C(=O)C3=C(O)c4c(O)cccc4C(C)(O)C3C(O)C12` (stereo not given): the melting point worked out at 121 °C.

`COc1ccc(CCl)c(C)c1CCl` showed a melting point of 97 °C.

In the case of `O=C1Cc2ccccc2O1`, the melting point came to 50 °C.

`N#CCS(=O)(=O)c1ccccc1` displayed a melting point of 112 °C.

For the compound `O=C1OC(=O)C2CCC12` (stereo not given), the melting point fell in the range of 73 to 76 °C.

In turn, `CC1=C(CCO)SC2=Nc3nc(C)ncc3CN21` registered a melting point of 229 °C.

For the compound `Cc1cc(CC(=O)O)n(C)c1C(=O)c1ccc(Cl)cc1`, the melting point stood at 178 °C.

As for `CCOC(=O)NP(=O)(N1CC1)N1CC1`, the melting point amounted to 89 °C.

For `CCC1(CC)C(=O)C=CNC1=O`, the melting point was 90.7 °C.

In turn, `CN1CCc2cc3c(cc2C(=O)Cc2ccc4c(c2C1)OCO4)OCO3` registered a melting point of 208 °C.

Regarding `Cc1cccc(C=CC(=O)O)c1`, the melting point lay in the range of 116 to 119 °C.

Take `CCOC(=O)/C(C#N)=C/c1ccc(O)cc1`: the melting point is 171 to 172 °C.

In turn, `C[C@@]12CCC=C1[C@@H]1CC[C@H]3CC(=O)CC[C@]3(C)[C@H]1CC2` displayed a melting point of 115 to 117 °C.

Take `O=NN1CCOCC1`: the melting point is 29 °C.

These data come from a melting point compilation (Tetko et al.).
